Tests used:
[1] = tested on: Rhizoctonia solani (RHIZSO); test: microbe, parasite or virus in culture; assay type: cell-based; conditions: Rhizoctonia solani, read-out: RHIZSO in vitro Growth Inhibition
[2] = tested on: Puccinia recondita—PUCCRT; test: Brown Rust of Wheat, in vivo whole plant, 24 Hour Protectant; conditions: wheat plants sprayed at 100 ppm, inoculated after 24 hours, control of fungal infection vs untreated plants; for pest or weed control at 100 ppm: Puccinia, read-out: PUCCRT in vivo 1 Day Protectant
[3] = tested on: Mycosphaerella graminicola (Septoria tritici—SEPTTR); test: In vitro fungal growth inhibition, Mycosphaerella graminicola (SEPTTR); assay type: cell-based; conditions: Zymoseptoria tritici; 25 ppm in the growth medium; read-out: SEPTTR in vitro Growth Inhibition
[4] = tested on: Phytophthora infestans—PHYTIN; test: whole plant or invertebrate; assay type: in vivo; conditions: for pest or weed control at 100 ppm: Phytophthora, in Solanum lycopersicum, 24 h, read-out: PHYTIN in vivo 1 Day Protectant
[5] = tested on: Phytophthora infestans (PHYTIN); test: microbe, parasite or virus in culture; assay type: cell-based; conditions: Phytophthora infestans, read-out: PHYTIN in vitro Growth Inhibition
[6] = tested on: Erysiphe graminis—ERYSGT; test: Powdery Mildew of Wheat, in vivo whole plant, 24 Hour Protectant; conditions: wheat plants sprayed at 100 ppm, inoculated after 24 hours, control of fungal infection vs untreated plants; for pest or weed control at 100 ppm: Erysiphe, read-out: ERYSGT in vivo 1 Day Protectant
[7] = tested on: Stagonospora nodorum (Leptosphaeria nodorum—LEPTNO); test: In vitro fungal growth inhibition, Stagonospora nodorum (LEPTNO); assay type: cell-based; conditions: Leptosphaeria; 25 ppm in the growth medium; read-out: LEPTNO in vitro Growth Inhibition
[8] = tested on: Septoria tritici—SEPTTR; test: Leaf Blotch of Wheat, in vivo whole plant, 24 Hour Protectant; conditions: wheat plants sprayed at 100 ppm, inoculated after 24 hours, control of fungal infection vs untreated plants; for pest or weed control at 100 ppm: Zymoseptoria tritici, 24 h, read-out: SEPTTR in vivo 1 Day Protectant
[9] = tested on: Leptosphaeria nodorum—LEPTNO; test: Glume Blotch of Wheat, in vivo whole plant, 24 Hour Protectant; conditions: wheat plants sprayed at 100 ppm, inoculated after 24 hours, control of fungal infection vs untreated plants; for pest or weed control at 100 ppm: Leptosphaeria, read-out: LEPTNO in vivo 1 Day Protectant
[10] = tested on: Ustilago maydis (USTIMA); test: microbe, parasite or virus in culture; assay type: cell-based; conditions: Mycosarcoma maydis, read-out: USTIMA in vitro Growth Inhibition
[11] = tested on: Magnaporthe grisea (Pyricularia oryzae—PYRIOR); test: microbe, parasite or virus in culture; assay type: cell-based; conditions: Pyricularia oryzae, read-out: PYRIOR in vitro Growth Inhibition

SMILES	inhibition at 25 ppm [1] [%]	pest or weed control at 100 ppm [2] [%]	inhibition at 25 ppm [3] [%]	pest or weed control at 100 ppm [4] [%]	inhibition at 25 ppm [5] [%]	pest or weed control at 100 ppm [6] [%]	inhibition at 25 ppm [7] [%]	pest or weed control at 100 ppm [8] [%]	pest or weed control at 100 ppm [9] [%]	inhibition at 25 ppm [10] [%]	inhibition at 25 ppm [11] [%]	PHYTIN in vivo 1 Day Protectant ([4]; tomato plants sprayed at 100 ppm, inoculated after 24 hours, control of fungal infection vs untreated plants)	LEPTNO in vivo 1 Day Protectant [9]	PUCCRT in vivo 1 Day Protectant [2]	SEPTTR in vivo 1 Day Protectant [8]	ERYSGT in vivo 1 Day Protectant [6]
O=C(Nc1ccc(Oc2cccc(C(F)(F)F)c2)cc1)c1nscc1O [Compound 551]	< 80	< 25	< 80	< 25	< 80	25 to 74	< 80	25 to 74	25 to 74	< 80	< 80	–	–	–	–	–
CC(C)C(=O)O[C@H]1[C@H](C)OC(=O)[C@@H](NC(=O)c2nsnc2O)COC(=O)[C@@H]1Cc1ccccc1 [Compound 553]	> 80	25 to 74	> 80	–	> 80	25 to 74	> 80	25 to 74	–	> 80	> 80	+ +	+ +	–	–	–
O=C(Nc1ccc(Oc2cccc(C(F)(F)F)c2)cc1)c1cscc1O [Compound 555]	> 80	< 25	> 80	< 25	> 80	< 25	> 80	25 to 74	25 to 74	< 80	> 80	–	–	–	–	–
CC(=O)Oc1cccnc1C(=O)N[C@H]1COC(=O)[C@H](Cc2ccccc2)[C@@H](OC(=O)C(C)C)[C@H](C)OC1=O [Compound 568]	< 80	–	> 80	< 25	< 80	< 25	> 80	–	–	< 80	< 80	–	+ +	+ +	+ +	–
COCCC(=O)Oc1cccnc1C(=O)N[C@H]1COC(=O)[C@H](Cc2ccccc2)[C@@H](OC(=O)C(C)C)[C@H](C)OC1=O [Compound 569]	< 80	–	> 80	25 to 74	< 80	< 25	> 80	–	–	< 80	> 80	–	+ +	+ +	+ +	–
CC(=O)Oc1cccnc1C(=O)Nc1ccc(Oc2cccc(C(F)(F)F)c2)cc1 [Compound 570]	< 80	< 25	< 80	< 25	< 80	–	< 80	25 to 74	25 to 74	< 80	> 80	–	–	–	–	+ +
COc1ccnc(C(=O)NC2CC(C)(C)CC(C)(C3CC3)C2)c1OC(C)=O (stereo not drawn) [Compound 573]	< 80	–	< 80	< 25	< 80	< 25	> 80	25 to 74	–	< 80	< 80	–	+ +	+ +	–	–
COc1ccnc(C(=O)NC2CC(C)(C)CC(C)(C#N)C2)c1OC(C)=O (stereo not drawn) [Compound 574]	< 80	< 25	< 80	< 25	< 80	< 25	< 80	25 to 74	25 to 74	< 80	< 80	–	–	–	–	–
COc1ccnc(C(=O)NC2CC(C)(C)C(=O)C(C)(C)C2)c1OC(C)=O [Compound 575]	< 80	25 to 74	< 80	< 25	< 80	< 25	< 80	25 to 74	25 to 74	< 80	< 80	–	–	–	–	–

Reference: patent US6706740B2, “Fungicidal heterocyclic aromatic amides and their compositions, methods of use and preparation” (Dow AgroSciences LLC, priority 1999, dated 2004)
